Consider four compounds from PubChem BioAssay AID1259353.

The assay concerns Trichuris muris adults ex vivo, motility imaging, 24 h. Description: Trichuris muris adult motility inhibition, dose response, whole organism, INVAPP motility imaging, 24 h (AID 1259353).

Turning to `COc1ccccc1CNc1nc(NCCOc2ccccc2Cl)c2sccc2n1`, the EC50 was 70 µM.

With `CNc1nc(NCCOc2ccccc2)c2sccc2n1`, the EC50 is 28 µM.

Take `COCCNc1nc(NCCOc2ccccc2Cl)c2sccc2n1`: the EC50 is 26 µM.

As to `CNc1nc(NCCOc2ccccc2Cl)c2sccc2n1`, the EC50 was 44 µM.
